This note sets out measurements from PubChem BioAssay (NCI).

Molecules are shown by their SMILES.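 1) Cells in 96-well plates. 2) Compound, 48 h, 5 concentrations. 3) Linear interpolation between surrounding doses. 4) Unreached endpoint = highest concentration. Here, GI50 denotes the concentration required for 50% inhibition of growth. The concentration for full growth arrest is given as TGI.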 Bounds are passed on as bounds.

Test systems include RPMI-8226 leukemia; MOLT-4 leukemia; A498 renal; SNB-19 CNS; SK-MEL-28 melanoma; MCF7 breast; DU-145 prostate; NCI-H522 lung; OVCAR-4 ovarian; EKVX NSCLC.
Assay in all cases: inhibition of tumour cell growth, NCI panel, 48 h

For the molecule `CN(CCCCCCCCNc1ccnc2ccccc12)Cc1ccc(-c2ccc(-c3ccc(C#N)cc3)s2)cc1`, the GI50 was 0.164 µM with RPMI-8226 leukemia; 0.368 µM in the assay with MOLT-4 leukemia; 1.22 µM in the assay with A498 renal; 1.31 µM in the assay with SNB-19 CNS; 1.65 µM in the assay on SK-MEL-28 melanoma; 0.183 µM in the assay on MCF7 breast. Further, the GI50 was 1.04 µM with DU-145 prostate, 1.35 µM with NCI-H522 lung, 0.139 µM in the assay with OVCAR-4 ovarian and 0.827 µM in the assay on EKVX NSCLC. Besides, the TGI in the assay on RPMI-8226 leukemia was found to be 0.571 µM; in the assay with MOLT-4 leukemia, 2.51 µM; in the assay with A498 renal it was 2.6 µM; in the assay with SNB-19 CNS, 2.79 µM; in the assay with SK-MEL-28 melanoma it was 3.06 µM; in the assay with MCF7 breast, 0.533 µM. For the same molecule, the TGI in the assay on DU-145 prostate came to 2.38 µM; in the assay on NCI-H522 lung it was 3.36 µM; in the assay on OVCAR-4 ovarian, 1.99 µM; with EKVX NSCLC, 2.28 µM.

Regarding `CSc1nc(SC)c2c(C)c(Br)[nH]c2n1`, the TGI in the assay with RPMI-8226 leukemia, with MOLT-4 leukemia, in the assay on A498 renal, in the assay with SNB-19 CNS, in the assay with SK-MEL-28 melanoma and with MCF7 breast was over 100 µM each time. Further, the TGI in the assay with DU-145 prostate, with NCI-H522 lung, in the assay with OVCAR-4 ovarian and in the assay with EKVX NSCLC was over 100 µM throughout.

Take `O=c1oc2ccc(I)cc2c(=O)n1-c1ccc(I)cc1F`: the GI50 is 0.366 µM in the assay with RPMI-8226 leukemia; 1.35 µM in the assay with MOLT-4 leukemia; 0.166 µM in the assay with A498 renal; 0.399 µM in the assay with SNB-19 CNS; 0.358 µM with SK-MEL-28 melanoma; 1.08 µM in the assay on MCF7 breast. For the same molecule, the GI50 is 0.684 µM with DU-145 prostate, 0.327 µM in the assay with NCI-H522 lung, 0.349 µM with OVCAR-4 ovarian and 1.15 µM in the assay on EKVX NSCLC. The TGI is 1.99 µM in the assay with RPMI-8226 leukemia; 4.94 µM with MOLT-4 leukemia; 0.546 µM in the assay on A498 renal; over 100 µM in the assay with SNB-19 CNS; 1.9 µM in the assay with SK-MEL-28 melanoma; 11.3 µM with MCF7 breast. Besides, the TGI in the assay on DU-145 prostate worked out at 17.9 µM; in the assay with NCI-H522 lung, 4.52 µM; in the assay on OVCAR-4 ovarian, 18.4 µM; in the assay with EKVX NSCLC, 8.21 µM.

With `CCc1nc(N)nc(N)c1-c1ccc(N(C)Cc2ccccc2)c([N+](=O)[O-])c1`, the TGI in the assay on RPMI-8226 leukemia worked out at 4.13 µM; in the assay with MOLT-4 leukemia, 8.11 µM; in the assay with A498 renal, 19.8 µM; with SNB-19 CNS, 37.3 µM; in the assay on SK-MEL-28 melanoma it was 17 µM; in the assay with MCF7 breast, 15.9 µM. For the same molecule, the TGI was 31.7 µM with DU-145 prostate, 14.6 µM with NCI-H522 lung, 52.1 µM in the assay on OVCAR-4 ovarian and 35 µM with EKVX NSCLC.

Consider `CC[C@H](C)C(=O)O[C@H]1CCC=C2C=C[C@H](C)[C@H](CC[C@@H]3C[C@@H](O)CC(=O)O3)[C@H]21`, for which the GI50 in the assay with RPMI-8226 leukemia was 13.1 µM; in the assay with A498 renal, 0.183 µM; in the assay with SNB-19 CNS it was 3.54 µM; in the assay on SK-MEL-28 melanoma, 15.3 µM; with MCF7 breast, over 42.5 µM; with DU-145 prostate, 51.6 µM. Moreover, the values for the GI50 in the assay on NCI-H522 lung, in the assay on OVCAR-4 ovarian and in the assay on EKVX NSCLC were 2.41 µM, 19.8 µM and 7.93 µM, respectively. The TGI in the assay on RPMI-8226 leukemia is over 75.9 µM; in the assay with MOLT-4 leukemia, over 100 µM; in the assay on A498 renal, 1.36 µM; with SNB-19 CNS it was over 100 µM; in the assay with SK-MEL-28 melanoma, over 100 µM; with MCF7 breast, over 100 µM. Further, the TGI was over 100 µM with DU-145 prostate, 39.6 µM in the assay on NCI-H522 lung, over 100 µM in the assay with OVCAR-4 ovarian and over 100 µM in the assay with EKVX NSCLC.

With `O=C(CS(=O)c1nc2ccccc2nc1-c1ccccc1)Nc1ccc(Cl)cc1` (centres undefined), the GI50 in the assay on RPMI-8226 leukemia is 20.6 µM; with MOLT-4 leukemia, 24.4 µM; with A498 renal it was 19 µM; in the assay with SNB-19 CNS, 38.4 µM; with SK-MEL-28 melanoma, 58.9 µM; in the assay on MCF7 breast it was 38.7 µM. Also, the GI50 with DU-145 prostate was 25.7 µM; in the assay with NCI-H522 lung it was 18.6 µM; with OVCAR-4 ovarian, 61.2 µM; with EKVX NSCLC it was 29.5 µM. For the same molecule, the TGI in the assay with RPMI-8226 leukemia was 58.8 µM; with MOLT-4 leukemia it was 69.3 µM; with A498 renal, 43 µM; with SNB-19 CNS it was over 100 µM; with SK-MEL-28 melanoma, over 100 µM; in the assay on MCF7 breast, over 100 µM. Also, the TGI with DU-145 prostate is over 100 µM; with NCI-H522 lung it was 60.1 µM; in the assay with OVCAR-4 ovarian, over 100 µM; with EKVX NSCLC it was over 100 µM.

As to `Cc1cc2oc(=O)cc(OC/C=C3/CCC(=O)O3)c2cc1C`, the GI50 is 0.512 µM in the assay on RPMI-8226 leukemia; 2.25 µM in the assay on MOLT-4 leukemia; 2.14 µM in the assay with A498 renal; 3.04 µM with SNB-19 CNS; 10.6 µM in the assay with SK-MEL-28 melanoma; 2.25 µM with MCF7 breast. Moreover, the GI50 in the assay with DU-145 prostate is 2.67 µM; in the assay with NCI-H522 lung it was 1.4 µM; with OVCAR-4 ovarian, 2.56 µM; with EKVX NSCLC it was 12.9 µM. The TGI amounted to 4.01 µM in the assay with RPMI-8226 leukemia; 13.4 µM with MOLT-4 leukemia; 12 µM in the assay on A498 renal; 19 µM in the assay with SNB-19 CNS; 24 µM with SK-MEL-28 melanoma; 12.6 µM with MCF7 breast. In addition, the TGI was determined as 12.4 µM with DU-145 prostate, 2.97 µM in the assay on NCI-H522 lung, 13.7 µM with OVCAR-4 ovarian and 30.5 µM in the assay with EKVX NSCLC.
